Results published in PubChem BioAssay AID1963423 (Molecular Pharmacology Branch, DTP, NCI, 2024).
“And” between values parts separate entries of the source, which are not always exact repeats. Identical values can stand only once. Blank lines part the entries; values can stand above or below the compound they belong to.

Test system: 439559-082-T-J2-PDC complex spheroid growth
Assay: Anticancer human tumor 439559-082-T-J2-PDC patient-derived colon adenocarcinoma cell line growth inhibition [Asc]
Settings: for viability, T/C: stronger effect = lower value
How it was run: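 Tumor cells were grown as complex spheroids with human endothelial cells (HUVEC) and human mesenchymal stem cells as stroma. Agents were tested alone and in combination, in half-log steps down from the clinical Cmax, or from 10 microM where Cmax was unknown.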

[1] = curve of first compound, second compound 0.1 µM
[2] = curve of first compound, second compound 0.316 µM
[3] = curve of first compound, second compound 1 µM
[4] = curve of first compound, second compound 3.16 µM
[5] = curve of first compound, second compound 10 µM
[6] = second compound 0.1 µM, first compound 0.0316 µM
[7] = second compound 0.1 µM, first compound 0.1 µM
[8] = second compound 0.1 µM, first compound 0.316 µM
[9] = second compound 0.1 µM, first compound 1 µM
[10] = second compound 0.1 µM, first compound 3.16 µM
[11] = second compound 0.1 µM, first compound 10 µM
[12] = second compound 0.316 µM, first compound 0.0316 µM
[13] = second compound 0.316 µM, first compound 0.1 µM
[14] = second compound 0.316 µM, first compound 0.316 µM
[15] = second compound 0.316 µM, first compound 1 µM
[16] = second compound 0.316 µM, first compound 3.16 µM
[17] = second compound 0.316 µM, first compound 10 µM
[18] = second compound 1 µM, first compound 0.0316 µM
[19] = second compound 1 µM, first compound 0.1 µM
[20] = second compound 1 µM, first compound 0.316 µM
[21] = second compound 1 µM, first compound 1 µM
[22] = second compound 1 µM, first compound 3.16 µM
[23] = second compound 1 µM, first compound 10 µM
[24] = second compound 3.16 µM, first compound 0.0316 µM
[25] = second compound 3.16 µM, first compound 0.1 µM
[26] = second compound 3.16 µM, first compound 0.316 µM
[27] = second compound 3.16 µM, first compound 1 µM
[28] = second compound 3.16 µM, first compound 3.16 µM
[29] = second compound 3.16 µM, first compound 10 µM
[30] = second compound 10 µM, first compound 0.0316 µM
[31] = second compound 10 µM, first compound 0.1 µM
[32] = second compound 10 µM, first compound 0.316 µM
[33] = second compound 10 µM, first compound 1 µM
[34] = second compound 10 µM, first compound 3.16 µM
[35] = second compound 10 µM, first compound 10 µM
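Further: spheroids exposed to agents for 7 days starting day 3 after seeding.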
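Wherever viability, T/C is given: percent of DMSO vehicle control viability with 100% = vehicle.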

Compound: CCN1CCN(Cc2ccc(Nc3ncc(F)c(-c4cc(F)c5nc(C)n(C(C)C)c5c4)n3)nc2)CC1
- viability, T/C (compound 0.00316 µM): 105% and 98.4% and 99.2%
- viability, T/C (compound 0.01 µM): 111% and 104% and 97.7%
- viability, T/C (compound 0.0316 µM): 89.4% and 96.5% and 95.8%
- viability, T/C (compound 0.1 µM): 92% and 89.7% and 89.2%
- viability, T/C (compound 0.316 µM): 93.1% and 92.7% and 81.8%
- viability, T/C (compound 1 µM): 84.8% and 84.4% and 70.8%
- IC50 (curve of compound): > 1000 nM

Compound: C=CC(=O)N1CCN(c2nc(=O)n(-c3c(C)ccnc3C(C)C)c3nc(-c4c(O)cccc4F)c(F)cc23)C(C)C1 (stereo unspecified)
- viability, T/C (compound 0.0316 µM): 96.5% and 102% (2×)
- viability, T/C (compound 0.1 µM): 114% and 106% and 101%
- viability, T/C (compound 0.316 µM): 103% and 102% and 108%
- viability, T/C (compound 1 µM): 104% and 106% and 114%
- viability, T/C (compound 3.16 µM): 108% and 106% and 92.2%
- viability, T/C (compound 10 µM): 103% (2×) and 101%
- IC50 (curve of compound): > 10000 nM

Compound: NC(=O)C(=Cn1cnc(-c2cc(C(F)(F)F)cc(C(F)(F)F)c2)n1)c1cncnc1 + CNC(C)C(=O)NC1CN(S(=O)(=O)c2cccc(S(=O)(=O)N3CCC4CCC(C(=O)NC(c5ccccc5)c5ccccc5)N4C(=O)C(NC(=O)C(C)NC)C3)c2)CCC2CCC(C(=O)NC(c3ccccc3)c3ccccc3)N2C1=O
- IC50 (curve of first compound, second compound 0.00316 µM): > 300 nM
- IC50 (curve of first compound, second compound 0.01 µM): > 300 nM
- IC50 (curve of first compound, second compound 0.0316 µM): > 300 nM
- IC50 [1]: > 300 nM
- IC50 [2]: > 300 nM
- IC50 [3]: > 300 nM
- viability, T/C (second compound 0.00316 µM, first compound 0.000949 µM): 105%
- viability, T/C (second compound 0.00316 µM, first compound 0.003 µM): 101%
- viability, T/C (second compound 0.00316 µM, first compound 0.00949 µM): 102%
- viability, T/C (second compound 0.00316 µM, first compound 0.03 µM): 97%
- viability, T/C (second compound 0.00316 µM, first compound 0.0949 µM): 98.2%
- viability, T/C (second compound 0.00316 µM, first compound 0.3 µM): 79.4%
- viability, T/C (second compound 0.01 µM, first compound 0.000949 µM): 101%
- viability, T/C (second compound 0.01 µM, first compound 0.003 µM): 92.3%
- viability, T/C (second compound 0.01 µM, first compound 0.00949 µM): 94.1%
- viability, T/C (second compound 0.01 µM, first compound 0.03 µM): 98.7%
- viability, T/C (second compound 0.01 µM, first compound 0.0949 µM): 102%
- viability, T/C (second compound 0.01 µM, first compound 0.3 µM): 92.4%
- viability, T/C (second compound 0.0316 µM, first compound 0.000949 µM): 94.1%
- viability, T/C (second compound 0.0316 µM, first compound 0.003 µM): 87.3%
- viability, T/C (second compound 0.0316 µM, first compound 0.00949 µM): 100%
- viability, T/C (second compound 0.0316 µM, first compound 0.03 µM): 99.7%
- viability, T/C (second compound 0.0316 µM, first compound 0.0949 µM): 108%
- viability, T/C (second compound 0.0316 µM, first compound 0.3 µM): 84.8%
- viability, T/C (second compound 0.1 µM, first compound 0.000949 µM): 96.3%
- viability, T/C (second compound 0.1 µM, first compound 0.003 µM): 103%
- viability, T/C (second compound 0.1 µM, first compound 0.00949 µM): 94.9%
- viability, T/C (second compound 0.1 µM, first compound 0.03 µM): 99.3%
- viability, T/C (second compound 0.1 µM, first compound 0.0949 µM): 101%
- viability, T/C (second compound 0.1 µM, first compound 0.3 µM): 87.2%
- viability, T/C (second compound 0.316 µM, first compound 0.000949 µM): 100%
- viability, T/C (second compound 0.316 µM, first compound 0.003 µM): 99.2%
- viability, T/C (second compound 0.316 µM, first compound 0.00949 µM): 87.2%
- viability, T/C (second compound 0.316 µM, first compound 0.03 µM): 86.2%
- viability, T/C (second compound 0.316 µM, first compound 0.0949 µM): 97%
- viability, T/C (second compound 0.316 µM, first compound 0.3 µM): 82.8%
- viability, T/C (second compound 1 µM, first compound 0.000949 µM): 79.1%
- viability, T/C (second compound 1 µM, first compound 0.003 µM): 80%
- viability, T/C (second compound 1 µM, first compound 0.00949 µM): 86.8%
- viability, T/C (second compound 1 µM, first compound 0.03 µM): 71.4%
- viability, T/C (second compound 1 µM, first compound 0.0949 µM): 88.7%
- viability, T/C (second compound 1 µM, first compound 0.3 µM): 74.2%

Now from value to compound, other results behind:

- IC50 [1]: 5150 nM
- IC50 [2]: 4170 nM
- IC50 [3]: 4170 nM
- IC50 [4]: 3170 nM
- IC50 [5]: 2780 nM
Compound: C=C(F)C(=O)N1CCN(c2nc(OCC3CCCN3C)nc3c2CCN(c2cccc4cccc(Cl)c24)C3)CC1CC#N (stereo unspecified) + Cc1c(S(C)(=O)=O)c(-c2cc(F)cc(N3CCN(c4ccc(NS(=O)(=O)c5ccc(NC(CCN6CCC(C(=O)OCCCP(=O)(O)O)CC6)CSc6ccccc6)c(S(=O)(=O)C(F)(F)F)c5)cc4)CC3)c2)c(-c2ccc(Cl)cc2)n1C(C)C
- viability, T/C [6]: 96.8%
- viability, T/C [7]: 107%
- viability, T/C [8]: 95%
- viability, T/C [9]: 88.6%
- viability, T/C [10]: 78.4%
- viability, T/C [11]: 14.2%
- viability, T/C [12]: 95.3%
- viability, T/C [13]: 106%
- viability, T/C [14]: 98.5%
- viability, T/C [15]: 77.7%
- viability, T/C [16]: 69.2%
- viability, T/C [17]: 4.6%
- viability, T/C [18]: 95.8%
- viability, T/C [19]: 94.5%
- viability, T/C [20]: 103%
- viability, T/C [21]: 84.5%
- viability, T/C [22]: 66.6%
- viability, T/C [23]: 0.51%
- viability, T/C [24]: 79.1%
- viability, T/C [25]: 95.3%
- viability, T/C [26]: 93.4%
- viability, T/C [27]: 71.7%
- viability, T/C [28]: 51.6%
- viability, T/C [29]: 0.43%
- viability, T/C [30]: 68%
- viability, T/C [31]: 85.8%
- viability, T/C [32]: 86.3%
- viability, T/C [33]: 65.8%
- viability, T/C [34]: 48.5%
- viability, T/C [35]: 2.9%

- IC50 [1]: 833 nM
- IC50 [2]: 620 nM
- IC50 [3]: 679 nM
- IC50 [4]: 188 nM
- IC50 [5]: 55.5 nM
Compound: C#Cc1c(F)ccc2cc(O)cc(-c3ncc4c(N5CC6CCC(C5)N6)nc(OCC56CCCN5CC(F)C6)nc4c3F)c12 (stereo unspecified) + Cc1c(S(C)(=O)=O)c(-c2cc(F)cc(N3CCN(c4ccc(NS(=O)(=O)c5ccc(NC(CCN6CCC(C(=O)OCCCP(=O)(O)O)CC6)CSc6ccccc6)c(S(=O)(=O)C(F)(F)F)c5)cc4)CC3)c2)c(-c2ccc(Cl)cc2)n1C(C)C
- viability, T/C [6]: 78.3%
- viability, T/C [7]: 77.3%
- viability, T/C [8]: 61.7%
- viability, T/C [9]: 47%
- viability, T/C [10]: 46.3%
- viability, T/C [11]: 37.1%
- viability, T/C [12]: 79%
- viability, T/C [13]: 75.1%
- viability, T/C [14]: 57.5%
- viability, T/C [15]: 43%
- viability, T/C [16]: 40.9%
- viability, T/C [17]: 31.6%
- viability, T/C [18]: 72.6%
- viability, T/C [19]: 66.4%
- viability, T/C [20]: 55.1%
- viability, T/C [21]: 44.1%
- viability, T/C [22]: 41.9%
- viability, T/C [23]: 27.4%
- viability, T/C [24]: 67.2%
- viability, T/C [25]: 55%
- viability, T/C [26]: 45.6%
- viability, T/C [27]: 34.6%
- viability, T/C [28]: 32.7%
- viability, T/C [29]: 22.5%
- viability, T/C [30]: 56.7%
- viability, T/C [31]: 41.2%
- viability, T/C [32]: 36.5%
- viability, T/C [33]: 24.4%
- viability, T/C [34]: 19.3%
- viability, T/C [35]: 14.9%
